Source: PubChem BioAssay AID1963451 (Molecular Pharmacology Branch, DTP, NCI, 2024)

Tested on: 521955-158-R6-J3-PDC complex spheroid growth, % test/control
Assay: Anticancer human tumor 521955-158-R6-J3-PDC patient-derived pancreatic carcinoma cell line growth inhibition [Asc]
Conditions: for IC50: curve of first compound; for viability, T/C: stronger effect = lower value
Outline: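 Stromal components (HUVEC and hMSC) are co-assembled with the cancer cells into multicellular spheroids. Drugs are then added singly or paired, at concentrations falling by half-log increments from a clinically achievable maximum, capped at 10 microM without known Cmax.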
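Note: spheroids exposed to compounds for 7 days.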
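Throughout, for viability, T/C: 100% = DMSO vehicle control wells.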

O=C(c1cc(Cc2n[nH]c(=O)c3ccccc23)ccc1F)N1CCN(C(=O)C2CC2)CC1 + Cc1c(S(C)(=O)=O)c(-c2cc(F)cc(N3CCN(c4ccc(NS(=O)(=O)c5ccc(NC(CCN6CCC(C(=O)OCCCP(=O)(O)O)CC6)CSc6ccccc6)c(S(=O)(=O)C(F)(F)F)c5)cc4)CC3)c2)c(-c2ccc(Cl)cc2)n1C(C)C
IC50 (second compound 0.0316 µM): > 10000 nM
IC50 (second compound 0.1 µM): > 10000 nM
IC50 (second compound 0.316 µM): 786 nM
IC50 (second compound 1 µM): < 31.6 nM
IC50 (second compound 3.16 µM): < 31.6 nM
IC50 (second compound 10 µM): < 31.6 nM
viability, T/C (second compound 0.0316 µM, first compound 0.0316 µM): 77.8%
viability, T/C (second compound 0.0316 µM, first compound 0.1 µM): 86.6%
viability, T/C (second compound 0.0316 µM, first compound 0.316 µM): 87.5%
viability, T/C (second compound 0.0316 µM, first compound 1 µM): 83.3%
viability, T/C (second compound 0.0316 µM, first compound 3.16 µM): 75.6%
viability, T/C (second compound 0.0316 µM, first compound 10 µM): 76.8%
viability, T/C (second compound 0.1 µM, first compound 0.0316 µM): 88.4%
viability, T/C (second compound 0.1 µM, first compound 0.1 µM): 71.9%
viability, T/C (second compound 0.1 µM, first compound 0.316 µM): 64%
viability, T/C (second compound 0.1 µM, first compound 1 µM): 62.6%
viability, T/C (second compound 0.1 µM, first compound 3.16 µM): 60.7%
viability, T/C (second compound 0.1 µM, first compound 10 µM): 54%
viability, T/C (second compound 0.316 µM, first compound 0.0316 µM): 56.4%
viability, T/C (second compound 0.316 µM, first compound 0.1 µM): 61.7%
viability, T/C (second compound 0.316 µM, first compound 0.316 µM): 52.6%
viability, T/C (second compound 0.316 µM, first compound 1 µM): 48.6%
viability, T/C (second compound 0.316 µM, first compound 3.16 µM): 41.7%
viability, T/C (second compound 0.316 µM, first compound 10 µM): 35%
viability, T/C (second compound 1 µM, first compound 0.0316 µM): 41%
viability, T/C (second compound 1 µM, first compound 0.1 µM): 34.6%
viability, T/C (second compound 1 µM, first compound 0.316 µM): 31.1%
viability, T/C (second compound 1 µM, first compound 1 µM): 30.1%
viability, T/C (second compound 1 µM, first compound 3.16 µM): 32.4%
viability, T/C (second compound 1 µM, first compound 10 µM): 27.2%
viability, T/C (second compound 3.16 µM, first compound 0.0316 µM): 23.3%
viability, T/C (second compound 3.16 µM, first compound 0.1 µM): 19.1%
viability, T/C (second compound 3.16 µM, first compound 0.316 µM): 17.1%
viability, T/C (second compound 3.16 µM, first compound 1 µM): 19.3%
viability, T/C (second compound 3.16 µM, first compound 3.16 µM): 16%
viability, T/C (second compound 3.16 µM, first compound 10 µM): 13.4%
viability, T/C (second compound 10 µM, first compound 0.0316 µM): 14.4%
viability, T/C (second compound 10 µM, first compound 0.1 µM): 15.4%
viability, T/C (second compound 10 µM, first compound 0.316 µM): 11.7%
viability, T/C (second compound 10 µM, first compound 1 µM): 13%
viability, T/C (second compound 10 µM, first compound 3.16 µM): 10%
viability, T/C (second compound 10 µM, first compound 10 µM): 9.06%
